Test systems include UO-31 renal; IGROV1 ovarian; NCI-H522 lung; CAKI-1 renal; EKVX NSCLC; MALME-3M melanoma; HOP-92 NSCLC; MDA-MB-231 breast; PC-3 prostate; HS 578T breast.
Experiment in all cases: inhibition of tumour cell growth, NCI panel, 48 h

Several values for one entry are separate records, joined by “and”; a condition that tells them apart may be missing. Equal values may be shown once.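 Grown in 96-well plates, cells were treated for 48 hours with each compound at five concentrations. Insufficient inhibition: endpoint recorded as highest concentration tested. GI50 is the concentration that inhibits growth by half. Definition used: TGI = concentration required for complete inhibition of growth.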

For `CCC(C(=O)O)c1ccc(OCc2ccccc2)cc1` (stereo unspecified), the TGI with UO-31 renal, with IGROV1 ovarian, with NCI-H522 lung, in the experiment on CAKI-1 renal, with EKVX NSCLC and with MALME-3M melanoma was greater than 100 µM throughout. In addition, in the experiment with HOP-92 NSCLC, the TGI is greater than 100 µM.
Consider `COc1ccc(N[C@H](CSc2ccc(C)cc2)c2ccc(F)cc2)cc1`, for which the TGI in the experiment on UO-31 renal, in the experiment with IGROV1 ovarian, in the experiment on NCI-H522 lung, in the experiment on MDA-MB-231 breast, in the experiment with CAKI-1 renal and with EKVX NSCLC was greater than 100 µM each time. Further, in the experiment with PC-3 prostate, the TGI is greater than 100 µM.
`Nc1c2ccccc2nc2c1ccc1ncccc12`: the TGI in the experiment on UO-31 renal is 40.2 µM; in the experiment with IGROV1 ovarian it was greater than 100 µM; with NCI-H522 lung, 38.3 µM; in the experiment with MDA-MB-231 breast it was 96.1 µM; in the experiment on CAKI-1 renal it was 92.1 µM; in the experiment with EKVX NSCLC, greater than 100 µM. Besides, the TGI in the experiment with MALME-3M melanoma is 27 µM; in the experiment with PC-3 prostate it was greater than 100 µM; in the experiment with HOP-92 NSCLC, greater than 100 µM.
On to `COc1ccc(Nc2nc3ccc(C(F)(F)F)cc3nc2C(=O)O)cc1OC`, for which the TGI with UO-31 renal is 43.7 µM; with IGROV1 ovarian it was greater than 100 µM; in the experiment with HS 578T breast, 96.6 µM; in the experiment on NCI-H522 lung it was 84.6 µM; with MDA-MB-231 breast it was greater than 100 µM; in the experiment with CAKI-1 renal it was greater than 100 µM. The TGI is greater than 100 µM with EKVX NSCLC, greater than 100 µM with MALME-3M melanoma and 94.6 µM in the experiment on PC-3 prostate.
Regarding `COCOc1ccc(OC)cc1`, the TGI with UO-31 renal, in the experiment on IGROV1 ovarian, with CAKI-1 renal, with EKVX NSCLC, in the experiment on MALME-3M melanoma and in the experiment on HOP-92 NSCLC was greater than 100 µM throughout.
For the compound `CSC1CC2C(CC1(C)O)C2(C)C` (stereo unspecified), the TGI is greater than 100 µM in the experiment with UO-31 renal; greater than 100 µM with IGROV1 ovarian; greater than 100 µM in the experiment on NCI-H522 lung; greater than 100 µM with CAKI-1 renal; 92.1 µM and > 100 µM with EKVX NSCLC; greater than 100 µM in the experiment on MALME-3M melanoma. Besides, the TGI with HOP-92 NSCLC is greater than 100 µM. Besides, the GI50 was 33.8 µM and > 100 µM with NCI-H522 lung; 13.3 µM and > 100 µM in the experiment with EKVX NSCLC; 25.5 µM and > 100 µM in the experiment on HOP-92 NSCLC.
For `CCC12C[N+]3([O-])CCc4c([nH]c5ccccc45)C(C(=O)OC)(c4cc5c(cc4OC)N(C)C4C(O)(C(=O)OC)C(OC(C)=O)C6(CC)C=CCN7CCC54C76)CC(C3)C1O2` (stereo unspecified), the TGI in the experiment on UO-31 renal came out at 14.4 µM; in the experiment on IGROV1 ovarian, 14.9 µM; with NCI-H522 lung, 0.282 µM; in the experiment with CAKI-1 renal it was 30.1 µM; in the experiment with EKVX NSCLC, 18 µM; in the experiment on MALME-3M melanoma it was 22.9 µM. Further, in the experiment with HOP-92 NSCLC, the TGI is 21.3 µM.
Take `CN(C)C(CN)CC1=C(CC(CN)N(C)C)CCC1` (stereo unspecified): the TGI in the experiment on UO-31 renal, in the experiment with IGROV1 ovarian, in the experiment on NCI-H522 lung, with CAKI-1 renal, in the experiment on EKVX NSCLC and in the experiment on MALME-3M melanoma was greater than 100 µM in each case. In addition, the TGI with HOP-92 NSCLC is greater than 100 µM.
As for `CC(C)(C)C1=Cc2cc3cc(C(C)(C)C)[nH]c(=O)c3cc2S(=O)(=O)N1`, the TGI with UO-31 renal was 35.8 µM; with NCI-H522 lung it was 32.3 µM; in the experiment on CAKI-1 renal it was 38.5 µM; with EKVX NSCLC, 44.1 µM; with MALME-3M melanoma it was 57.7 µM; in the experiment on HOP-92 NSCLC it was 39.3 µM.
As to `C/C(=N/NC(N)=S)c1ccc2ccccc2c1`, the TGI in the experiment on IGROV1 ovarian was greater than 100 µM; in the experiment with NCI-H522 lung, 41 µM; in the experiment with EKVX NSCLC, 37.3 µM; in the experiment with MALME-3M melanoma, greater than 100 µM; in the experiment on HOP-92 NSCLC it was greater than 100 µM.
For the compound `C/C(=C\c1ccccc1)C(=O)CCN1CCOCC1`, the TGI in the experiment with UO-31 renal was 41.5 µM; with IGROV1 ovarian, greater than 61.9 µM; in the experiment on NCI-H522 lung, 22.3 µM; in the experiment with CAKI-1 renal it was 32.5 µM; with EKVX NSCLC, 42.7 µM; in the experiment with MALME-3M melanoma, 33 µM. The TGI in the experiment on HOP-92 NSCLC came out at 37.1 µM.
For `CCOC(=O)C1=C(C(C)=O)CSC(c2ccccc2)=N1`, the TGI in the experiment with UO-31 renal, in the experiment on IGROV1 ovarian, in the experiment with NCI-H522 lung, in the experiment on CAKI-1 renal, in the experiment on EKVX NSCLC and with MALME-3M melanoma was greater than 100 µM each time. The TGI in the experiment with HOP-92 NSCLC was greater than 100 µM.
As for `Cc1nn(C(=O)Cc2ccccc2)c2c1C(c1ccccc1O)SC(N)=N2` (stereo unspecified), the TGI with UO-31 renal, with IGROV1 ovarian, with HS 578T breast, in the experiment on NCI-H522 lung, with MDA-MB-231 breast and in the experiment on CAKI-1 renal was greater than 100 µM each time. The TGI in the experiment with EKVX NSCLC, in the experiment with MALME-3M melanoma and in the experiment on PC-3 prostate was greater than 100 µM each time.
For the compound `Cc1cc2c(C)cc(=O)[nH]c2cc1N`, the TGI in the experiment on UO-31 renal, in the experiment with IGROV1 ovarian, with MDA-MB-231 breast, in the experiment on CAKI-1 renal, in the experiment with EKVX NSCLC and in the experiment with PC-3 prostate was greater than 100 µM in each case. Further, the TGI in the experiment with HOP-92 NSCLC was greater than 100 µM.
In the case of `Nc1nn2c(C(Br)Br)cc(C(Br)Br)nc2c1[N+](=O)[O-]`, the TGI in the experiment with UO-31 renal was found to be 2.5 µM; in the experiment on IGROV1 ovarian it was 3.38 µM; in the experiment on HS 578T breast it was 6.28 µM; in the experiment with NCI-H522 lung, 0.248 µM; in the experiment on MDA-MB-231 breast, 2.95 µM; with CAKI-1 renal, 0.954 µM. In addition, the TGI with EKVX NSCLC was 6.45 µM; with MALME-3M melanoma it was 2.14 µM; in the experiment with PC-3 prostate it was 2.73 µM.
On to `CN(C)c1ccc(-c2c(C#N)c(S)n(NS(=O)(=O)c3ccccc3)c(=O)c2C#N)cc1`, for which the TGI was 86.4 µM in the experiment on UO-31 renal; 73.5 µM in the experiment on IGROV1 ovarian; 44.5 µM in the experiment on NCI-H522 lung; greater than 100 µM in the experiment on MDA-MB-231 breast; 76.1 µM with CAKI-1 renal; greater than 100 µM in the experiment on EKVX NSCLC. For the same compound, the TGI in the experiment on MALME-3M melanoma, in the experiment with PC-3 prostate and with HOP-92 NSCLC was greater than 100 µM in each case.
